{"source": "patent US20230158151A1", "about": "(NURIX THERAPEUTICS, INC., priority 2021, published 2023)", "key": {"[1]": {"assay": "Mouse PK Analysis (plasma LC/MS/MS, noncompartmental PK parameters)", "assay_type": "in vivo", "set-up": "AUC(0-t): concentration or dose not given beside the values", "conditions": "mice; for AUC(0-t) / Cmax / Tmax: mouse, oral administration, plasma", "protocol": "Compounds 30 and 29 were administered to mice orally. After 6 hours or 24 hours, splenocytes cells were harvested. ITK was evaluated by Western blotting. Plasma concentrations were determined by LC/MS/MS. Plasma samples were protein precipitated by addition of 100 μl of acetonitrile containing 50 ng/ml of internal standard. The resulting mixture was vortexed and centrifuged at 4000 RPM for 5 minutes. An aliquot of the resultant supernatant (75 μl) was added to 75 μl of 0.1% formic acid in water to constitute the final sample for injection. Samples were injected on a Shimadzu Exion LC Binary Gradient AD Pump HLPC system connected to a Sciex QTRAP 6500+ mass spectrometer. Five μl of sample was injected onto a Waters Acquity UPLC BEH C18 column 130A (2.1×30 mm, […]) at 40° C. utilizing a flow rate of 700 μl/minute. Mobile Phase A was 0.1% formic acid in water and mobile phase B was 0.1% formic acid in acetonitrile. A linear gradient of 15-95% B over 1.0 minute was used. The mass spectrometer was operated in positive ion electrospray mode with multiple reaction monitoring for maximum sensitivity. Sciex Analyst software (version 1.6.3) was used for LC/MS/MS instrument control and acquisition. Compound concentration was determined against a standard curve of internal standard versus compound peak area ratio. Noncompartmental PK parameters were determined using Phoenix 32 software (version 8.2.0.4383) from Certara. Plasma concentrations from the LC/MS/MS analyses, dose, route of administration, and desired units were utilized for PK parameter calculations. […] FIG. 3C provides the concentration over time of compound 30 following in vivo oral administration in the 6 hour and 24 hour assays.\nCmax, Tmax and AUClast were all calculated using a WinNonLin Phoenix 64 v 8.2.0.4383. Using non-compartmental analysis, Tmax, Cmax and AUClast were determined as follows:\nTmax—Time of maximum observed concentration. Cmax—Maximum observed concentration, occurring at time Tmax, as defined above. AUClast—Area under the curve from the time of dosing to the time of the last measurable (positive) concentration (Tlast)."}, "ITK": {"molecular_target": "T1, ITK (Homo sapiens, UniProt Q08881)", "T1 construct": "Compounds provided herein were assayed in vitro with ITK HiBit cell lines; endogenous in cells; host or cells: Molt4 (ATCC CRL-1552 [sic]), monoclonal clone 1C10", "T1 sequence (Q08881 1-620)": "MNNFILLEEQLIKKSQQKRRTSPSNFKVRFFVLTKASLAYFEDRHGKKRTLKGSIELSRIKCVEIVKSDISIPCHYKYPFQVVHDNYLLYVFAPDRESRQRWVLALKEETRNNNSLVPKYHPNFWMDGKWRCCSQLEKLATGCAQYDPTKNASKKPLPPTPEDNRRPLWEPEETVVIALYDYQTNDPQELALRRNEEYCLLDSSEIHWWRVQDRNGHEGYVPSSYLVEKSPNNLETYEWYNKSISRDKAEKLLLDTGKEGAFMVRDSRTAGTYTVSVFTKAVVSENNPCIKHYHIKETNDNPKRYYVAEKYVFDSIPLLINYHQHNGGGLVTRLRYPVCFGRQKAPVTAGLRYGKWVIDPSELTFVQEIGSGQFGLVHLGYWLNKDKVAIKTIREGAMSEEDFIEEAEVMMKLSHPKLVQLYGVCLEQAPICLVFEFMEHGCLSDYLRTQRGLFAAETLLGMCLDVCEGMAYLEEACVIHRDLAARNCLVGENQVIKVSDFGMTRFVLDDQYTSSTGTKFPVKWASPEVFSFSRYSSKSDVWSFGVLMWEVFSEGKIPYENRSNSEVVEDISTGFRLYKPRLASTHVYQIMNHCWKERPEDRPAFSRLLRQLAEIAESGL", "assay": "ITK Degradation HiBiT Assay", "assay_type": "cell-based", "protocol": "Compounds provided herein were assayed in vitro with ITK HiBit cell lines. Compound dilution series (11-point, 5 fold dilutions in DMSO, columns 2-12 with replicate in rows A/B, C/D, E/F, G, H at 2000× the final required concentrations were prepared in 96 well plate (Falcon, cat. no. 353077). Column 1, rows A-H were control DMSO. The 2000× solutions ranged from 2 mM to 1.024 nM (final assay concentration range 1 μM to […]). The 2000× solutions were added to cells in […], for a final DMSO concentration of 0.5% and final assay compound concentration of 1×. For the cells, C-terminal HiBiT-tagged Molt4 cells (ATCC CRL-1552, monoclonal cell line clone 1C10) were plated at 1×10^6 cells/mL, 100 μL/well ([…]) in complete RPMI (10% FBS, 1% L-glutamine). The cells were incubated with compound 32 and compound 30 for 4 hrs at 32° C./6% CO2.\nFollowing incubation, 100 μL of complete Nano-Glo HiBiT Lytic Detection Reagent (Nano-Glo HiBiT Lytic Buffer with 1:50 Nano-Glo HiBiT Lytic Substrate and 1:100 LgBiT Protein; Promega cat. no. N3O40) was added. Cells were further incubated for 10 min at room temperature (RT). Luminescence units (LU) were read on an EnVision plate reader (Perkin Elmer, 0.1 sec per well). Percent ITK remaining per sample was calculated as follows: […]\nUsing Graphpad Prism, % ITK remaining values were plotted as a function of compound concentration. To determine DC50 and Dmax values, resulting curves were fit to the Prism curve-fitting equation “log(inhibitor) vs response−Variable slope (four parameters)” (reported best fit value IC50 used as DC50). ITK was measured with antibody-based MSD (Meso-Scale Discovery) assays shown below."}, "[2]": {"conditions": "MOLT-4, C-terminal HiBiT-tagged Molt4 cells, 4 hrs incubation, read-out: HiBiT DMax (%)"}}, "note": "Like-named read-outs stand apart in the source and are kept apart here."}
{"smiles": "CN(C(=O)CC1CCN(c2ccc(C3CCC(=O)NC3=O)cn2)CC1)c1ccc2cc(-c3n[nH]c4c3C[C@@H]3C(F)(F)[C@]3(C)C4)[nH]c2c1", "note": "(some centres unmarked) [Compound 27]", "values": [{"measurement": "AUC(0-t)", "setting": "[1]", "result": 1.69, "unit": "µM·h"}, {"measurement": "Cmax", "setting": "[1]", "result": 609, "unit": "nM"}, {"measurement": "Tmax", "setting": "[1]", "result": 1, "unit": "h"}]}
{"smiles": "C[C@@H](C(=O)N(C)c1ccc2cc(-c3n[nH]c4c3C[C@@H]3C(F)(F)[C@]3(C)C4)[nH]c2c1)N1CCN(CC2CCN(c3ccc(C4CCC(=O)NC4=O)cn3)CC2)CC1", "note": "(stereo partly drawn) [Compound 30, (2S)—N-(2-((4aS,5aR)-5,5-difluoro-5a-methyl-1,4,4a,5,5a,6-hexahydrocyclopropa[f]indazol-3-yl)-1H-indol-6-yl)-2-(4-((1-(5-(2,6-dioxopiperidin-3-yl)pyridin-2-yl)piperidin-4-yl)methyl)piperazin-1-yl)-N-methylpropanamide]", "values": [{"measurement": "Dmax", "setting": "ITK; ITK degradation in HiBiT cell line, FIG. 1, read-out: Dmax values (FIG. 1)", "result": "90 to 100", "unit": "%"}, {"measurement": "Dmax", "setting": "ITK; [2]", "result": 85, "unit": "%"}, {"measurement": "detection in plasma", "setting": "[1]; oral, 6 hour and 24 hour assays", "result": "detected in plasma through 6 and 24 hours"}, {"measurement": "AUC(0-t)", "setting": "[1]", "result": 1.25, "unit": "µM·h"}, {"measurement": "Cmax", "setting": "[1]", "result": 870, "unit": "nM"}, {"measurement": "Tmax", "setting": "[1]", "result": 2, "unit": "h"}]}
{"smiles": "CC1(C)CCc2c(-c3cc4ccc(C(=O)N5CCN(CC6CCN(c7ccc(C8CCC(=O)NC8=O)nc7)CC6)CC5)cc4[nH]3)n[nH]c2C1", "note": "(centres unmarked) [Compound 42, 3-(5-(4-((4-(2-(6,6-dimethyl-4,5,6,7-tetrahydro-1H-indazol-3-yl)-1H-indole-6-carbonyl)piperazin-1-yl)methyl)piperidin-1-yl)pyridin-2-yl)piperidine-2,6-dione]", "values": [{"measurement": "DC50", "setting": "ITK; C-terminal HiBiT-tagged Molt4 cells, 4 hrs incubation", "result": 3, "unit": "pM"}, {"measurement": "Dmax", "setting": "ITK; [2]", "result": 88, "unit": "%"}, {"measurement": "AUC(0-t)", "setting": "[1]", "result": 28, "unit": "µM·h"}, {"measurement": "Cmax", "setting": "[1]", "result": 5100, "unit": "nM"}, {"measurement": "Tmax", "setting": "[1]", "result": 2, "unit": "h"}]}
